{"source": "patent US20150071942A1", "about": "“COMBINATION THERAPY OF ANTI-MIF ANTIBODIES AND CHEMOTHERAPEUTICS” (Baxter Healthcare SA, priority 2012, published 2015)", "key": {"A2780 xenografts": {"system": "A2780 xenografts", "experiment": "A2780 ovarian cancer xenograft in Mf1 nude mice (tumor growth)", "type": "in vivo, human", "conditions": "monotherapy; RAM0 15 mg/kg every other day or cisplatin once a week", "description": "Tumor weights are indicated after treatment of inoculated mice with a human control IgG or with RAM0. Antibodies were applied either alone or in combination with cisplatin.\nThis effect is of high relevance, in particular if it can also be observed in vivo. This was explored in female Mf1 nude mice inoculated with A2780 xenografts (FIG. 5). Mice (n=10/group) were inoculated with 1*10^6 A2780 cells resuspended in matrigel. […] Cisplatin was administered once a week starting on day 2 after xenograft inoculation."}, "A2780 cells": {"system": "A2780 cells", "experiment": "Cisplatin-dependent cell killing assay (calcein-AM, flow cytometry)", "type": "cell-based, human", "conditions": "in presence of 50 nM RAM0; 48 hours; p<0.01", "description": "Data are the means±standard deviation of 9 independent experiments.\n(§1) After 48 hours of incubation cells were detached with Accutase™, labeled with calcein-AM and the level of calcein fluorescence was determined by flow cytometry. The mean fluorescence intensity in the absence of any drug or antibody was set to 1 to normalize for interassay variations. The mean fluorescent intensities were blotted against the cisplatin concentration and the half maximum active concentrations of cisplatin (EC50-values) were calculated."}, "[1]": {"system": "BxPC3 human pancreatic cancer cells", "experiment": "Orthotopic BxPC3 xenograft model for pancreatic cancer in nude mice (survival)", "type": "in vivo", "conditions": "monotherapy, gemcitabine 100 mg/kg or RAM9 60 mg/kg alone", "description": "Control groups were left untreated (left and right panel, dotted black line) or were treated with a control human monoclonal antibody (Control IgG, left panel, solid grey line) or with gemcitabine alone (Gemcitabine, left panel, solid black line). The survival curves represent the points in time when animals had to be sacrificed in accordance with UK Home Office Guidance.\nBxPC3 cells are derived from a human pancreatic adenocarcinoma and grow inside the pancreas once they have been injected orthotopically in nude mice and present as a solid tumor. CD1-Foxn1/nu nude mice are orthotopically inoculated with 1×10^6 BxPC3 cells (injection of 30 μl matrigel:tumor cell suspension into the pancreas) and the tumor was allowed to establish for 7 days. […] Additional control groups were left untreated or received a control human IgG1 monoclonal antibody. The growth of internal tumors was judged by external signs (e.g. abdominal distension causing more than 20% increase in normal body weight, or a 20% loss in normal body weight) or clinical signs (e.g. dyspnoea, jaundice, neurological signs, digestive disturbances). Animals reaching the home office limit according to the UK home office guidance were sacrificed (for animal welfare reasons). The resulting survival curve was used as primary outcome of the study."}, "[2]": {"system": "Colo357 human pancreatic cancer cell line", "experiment": "Orthotopic Colo357 xenograft model for pancreatic cancer in nude mice (survival, tumor volume, microvessel density)", "type": "in vivo", "conditions": "monotherapy", "description": "Control groups were left untreated or were treated with gemcitabine alone (Gem) or a control human monoclonal antibody alone (Control) or with a control human monoclonal antibody in combination with gemcitabine (Control+Gem). (A) Survival curves representing the points in time when animals had to be sacrificed in accordance with UK Home Office Guidance. (B) Tumor volume was measured in as subset of animals after animals had been sacrificed on day 20 after cell implantation. (C) After treatment, mice bearing a Colo357 xenograft were injected i.v. with the FITC-conjugated tomato lectin to visualize the blood vessels on day 12. Microvessel density was quantified using ImagePro Plus software (Image-Pro plus, Media Cybernetics) and vessel density was expressed as the mean percentage of total surface area.\nCD1-Foxn1/nu nude mice are orthotopically inoculated with 1×10^5 Colo357 cells (injection of 30 μl matrigel:tumor cell suspension into the pancreas) and the tumor was allowed to establish for 7 days. […]\nWe further analyzed […] vessel density in a small cohort of animals. […] Cell nuclei were stained using propidium iodide, and vessels were visualized using confocal microscopy (Zeiss LSM 510 META), and microvessel density was quantified using ImagePro Plus software (Image-Pro plus, Media Cybernetics). Vessel density was expressed as the mean"}, "LnCAP cells": {"system": "LnCAP cells", "experiment": "Mitoxantrone-dependent cell killing assay (calcein-AM, flow cytometry)", "type": "cell-based, human", "conditions": "for pEC50: Homo sapiens, LNCaP, 48 h, n=10", "description": "The single values as well as the mean±standard deviation of 10 independent experiments are shown.\nas §1, with “plotted” for “blotted”, “mitoxantrone” for “cisplatin”"}, "[3]": {"system": "A2780adr ovarian cancer cells", "experiment": "Induction of apoptosis (caspase 3 activity) in doxorubicin-resistant ovarian cancer cells", "type": "cell-based, human", "conditions": "agent alone; 72 hours of treatment", "description": "The percentage increased caspase 3 activity over non-treated cells is indicated. Cells were treated with a human isotype control IgG (Control IgG), anti-MIF antibody RAM0 or RAM9 alone, a combination of control IgG and doxorubicin (Control IgG+Dox), doxorubicin alone (Dox) or a combination of anti-MIF antibody and doxorubicin (RAM0+Dox or RAM9+Dox).\nThe induction of apoptosis was assessed by detection of caspase 3 activity after 72 hours of treatment."}}, "note": "pEC50: −log10 of the molar value.", "data": [{"smiles": "N.N.[Cl][Pt][Cl]", "note": "[Cisplatin, reference compound]", "values": [{"measurement": "tumor growth", "setting": "A2780 xenografts", "value": "did not have any effect on tumor growth"}, {"measurement": "EC50-value of cisplatin", "setting": "A2780 cells", "value": "reduced significantly"}]}, {"smiles": "Nc1ccn([C@@H]2O[C@H](CO)[C@@H](O)C2(F)F)c(=O)n1", "note": "[Gemcitabine, reference compound]", "values": [{"measurement": "survival of the xenografted mice", "setting": "[1]", "value": "only marginally prolonged the survival"}, {"measurement": "blood vessel density in the tumour microenvironment", "setting": "[2]; day 12, FITC-conjugated tomato lectin", "value": "Neither gemcitabine nor RAM0 have a significant effect"}, {"measurement": "survival", "setting": "[2]; gemcitabine 100 mg/kg or RAM0 60 mg/kg alone, i.p., Colo357 in nude mice", "value": "only prolonged survival to a marginal and statistically insignificant extent"}]}, {"smiles": "O=C1c2c(O)ccc(O)c2C(=O)c2c(NCCNCCO)ccc(NCCNCCO)c21", "note": "[mitoxantrone, Mitoxantrone]", "values": [{"measurement": "pEC50", "setting": "LnCAP cells; in presence of 100 nM RAM0", "value": 9.01}, {"measurement": "pEC50", "setting": "LnCAP cells; mitoxantrone alone", "value": 8.80}, {"measurement": "mean EC50 of mitoxantrone", "setting": "LnCAP cells; in presence of 100 nM human isotype control antibody, compared to mitoxantrone alone", "value": "identical mean EC50"}]}, {"smiles": "COc1cccc2c1C(=O)c1c(O)c3c(c(O)c1C2=O)C[C@@](O)(C(=O)CO)C[C@@H]3O[C@H]1C[C@H](N)[C@H](O)[C@H](C)O1", "note": "[Doxorubicin, reference compound]", "values": [{"measurement": "caspase 3 activity", "setting": "[3]", "value": "significant but minor enhanced caspase 3 activity"}]}]}
